Assay results as given in patent US20250263408A1 (Uniquest Pty Ltd, priority 2022, published 2025).

Tests used:
Syk = target: T1, Syk (Homo sapiens, UniProt P43405); assay: Syk Biochemical Assay (ADP-Glo luminescence); details: ATP 40 μM final, 60 minutes, read-out: SYK Biochem IC50
T1 construct: purchased Promega
Protocol: Compounds were serially diluted in 100% DMSO, prior to an intermediate dilution in water. In a low volume white 384-well Proxiplate (Perkin Elmer), 1 μL of compound (0.4% final DMSO) was added to 3 μL of 10 ng/well Syk (Promega) and 0.2 mg/mL Poly-E4Y1 substrate (Promega) in assay buffer (final 40 mM Tris-HCl pH 7.4, 20 mM MgCl2, 0.1 mg/mL BSA) for 5 minutes. The reaction was initiated by addition of 1 μL of ATP (40 μM final) and allowed to proceed for 60 minutes at room temperature. The reaction was terminated by addition of 5 μL of ADP-Glo Reagent Mix (Promega) containing 1 mM MgCl2 for 45 minutes at room temperature. 10 μL of Kinase Detection Reagent (Promega) was added and incubated for 10 minutes at room temperature, before luminescence was measured using an Ensight Multimode Plate Reader (Perkin Elmer).

Ba/F3-Syk cells = target: T2, Ba/F3-Syk cells (Homo sapiens, UniProt P43405); assay: Ba/F3 Proliferation Assay, Ba/F3-Syk cells (Resazurin); format: cell-based; details: 48-hour incubation
T2 construct: fused on or other part: Possible but unprinted fusion partner: TEL (ETV6), the usual partner for Ba/F3 lines transformed by Syk; Nothing on a partner is printed

[1] = system: Ba/F3-WT (wild type) cells; assay: Ba/F3 Proliferation Assay, Ba/F3-WT (wild type) cells with mIL-3 (Resazurin); format: cell-based; details: Ba/F3-WT cells +mIL-3, 48-hour incubation

IC50 (Syk) [nM]	EC50 (Ba/F3-Syk cells) [nM]	EC50 ([1]; Mus musculus, BaF3, 48 h) [nM]	EC50 [1] [nM]	Compound
128	135	1500		C[C@H]1CNC[C@@H](COc2nc(-c3cnn(C)c3)cc3ncccc23)O1 (relative stereo) [Compound 2.24, 7-(1-methyl-1H-pyrazol-4-yl)-5-{[(rel-2S,6S)-6-methylmorpholin-2-yl]methoxy}-1,6-naphthyridine]
39	62.1	1510		C[C@@H]1CNC[C@@H](COc2nc(-c3cnn(C)c3)cc3ncccc23)O1 (relative stereo) [Compound 2.25, 7-(1-methyl-1H-pyrazol-4-yl)-5-{[(rel-2S,6R)-6-methylmorpholin-2-yl]methoxy}-1,6-naphthyridine]
131	216	1450		C[C@H]1CO[C@H](COc2nc(-c3cnn(C)c3)cc3ncccc23)CN1 (relative stereo) [Compound 2.26, 7-(1-methyl-1H-pyrazol-4-yl)-5-{[(rel-2S,5S)-5-methylmorpholin-2-yl]methoxy}-1,6-naphthyridine]
247	305	1500		C[C@@H]1CO[C@H](COc2nc(-c3cnn(C)c3)cc3ncccc23)CN1 (relative stereo) [Compound 2.27, 7-(1-methyl-1H-pyrazol-4-yl)-5-{[(rel-2S,5R)-5-methylmorpholin-2-yl]methoxy}-1,6-naphthyridine]
23.6	55.5		575	CC(C)(C)n1cc(-c2cc3ncccc3c(OC[C@H]3OC[C@@H]4C[C@H]3N4)n2)cn1 (relative stereo) [Compound 2.106, 7-(1-tert-butyl-1H-pyrazol-4-yl)-5-{[rel-(1R,2S,5S)-3-oxa-6-azabicyclo[3.1.1]heptan-2-yl]methoxy}-1,6-naphthyridine]
12.9	6.1	2670		Cc1ccnc2cc(-c3cnn(C(C)(C)C)c3)nc(OC[C@@H]3CNCC(C)(C)O3)c12 (stereo in doubt) [Compound 14.6, 7-(1-tert-butyl-1H-pyrazol-4-yl)-5-[(6,6-dimethylmorpholin-2-yl)methoxy]-4-methyl-1,6-naphthyridine]
50.8	92.8	1250		Cn1cc(-c2cc3ncccc3c(OCC3CNCCO3)n2)cn1 (centres unmarked) [Compound 2.1, 7-(1-methyl-1H-pyrazol-4-yl)-5-[(morpholin-2-yl)methoxy]-1,6-naphthyridine]
130	355	1760		Cn1cc(-c2cc3ncccc3c(OC[C@H]3CNCCO3)n2)cn1 [Compound 2.2, 7-(1-methyl-1H-pyrazol-4-yl)-5-{[(2R)-morpholin-2-yl]methoxy}-1,6-naphthyridine]
39	105	2350		Cn1cc(-c2cc3ncccc3c(OC[C@@H]3CNCCO3)n2)cn1 [Compound 2.3, 7-(1-methyl-1H-pyrazol-4-yl)-5-{[(2S)-morpholin-2-yl]methoxy}-1,6-naphthyridine]
38.9	76.7	2540		C[C@@H](Oc1nc(-c2cnn(C)c2)cc2ncccc12)[C@@H]1CNCCO1 [Compound 2.5, 7-(1-methyl-1H-pyrazol-4-yl)-5-[(1R)-1-[(2S)-morpholin-2-yl]ethoxy]-1,6-naphthyridine]
15.6	57.2	1530		CCn1cc(-c2cc3ncccc3c(OC[C@@H]3CNCCO3)n2)cn1 [Compound 2.6, 7-(1-ethyl-1H-pyrazol-4-yl)-5-{[(2S)-morpholin-2-yl]methoxy}-1,6-naphthyridine]
12.8	37.6	934		CC(C)n1cc(-c2cc3ncccc3c(OC[C@@H]3CNCCO3)n2)cn1 [Compound 2.7, 5-{[(2S)-morpholin-2-yl]methoxy}-7-[1-(propan-2-yl)-1H-pyrazol-4-yl]-1,6-naphthyridine]
37.4	196	1440		COCCn1cc(-c2cc3ncccc3c(OC[C@@H]3CNCCO3)n2)cn1 [Compound 2.8, 7-[1-(2-methoxyethyl)-1H-pyrazol-4-yl]-5-{[(2S)-morpholin-2-yl]methoxy}-1,6-naphthyridine]
40.6	187	2360		COCn1cc(-c2cc3ncccc3c(OC[C@@H]3CNCCO3)n2)cn1 [Compound 2.9, 7-[1-(methoxymethyl)-1H-pyrazol-4-yl]-5-{[(2S)-morpholin-2-yl]methoxy}-1,6-naphthyridine]
14.5	39.9	2780		CC(C)(C)n1cc(-c2cc3ncccc3c(OC[C@@H]3CNCCO3)n2)cn1 [Compound 2.10, 7-(1-tert-butyl-1H-pyrazol-4-yl)-5-{[(2S)-morpholin-2-yl]methoxy}-1,6-naphthyridine]
18.2	131			c1cnc2cc(-c3cnn(C4COC4)c3)nc(OC[C@@H]3CNCCO3)c2c1 [Compound 2.11, 5-{[(2S)-morpholin-2-yl]methoxy}-7-[1-(oxetan-3-yl)-1H-pyrazol-4-yl]-1,6-naphthyridine]
51.6	79	2400		Cn1cc(-c2cc3ncccc3c(OCC3CNCC(C)(C)O3)n2)cn1 (centres unmarked) [Compound 2.13, 5-[(6,6-dimethylmorpholin-yl)methoxy]-7-(1-methyl-1H-pyrazol-4-yl)-1,6-naphthyridine]
74.8	139	2890		FC(F)n1cc(-c2cc3ncccc3c(OC[C@@H]3CNCCO3)n2)cn1 [Compound 2.15, 7-[1-(difluoromethyl)-1H-pyrazol-4-yl]-5-{[(2S)-morpholin-2-yl]methoxy}-1,6-naphthyridine]
222	493	> 10000		FC(F)(F)n1cc(-c2cc3ncccc3c(OC[C@@H]3CNCCO3)n2)cn1 [Compound 2.16, 5-{[(2S)-morpholin-2-yl]methoxy}-7-[1-(trifluoromethyl)-1H-pyrazol-4-yl]-1,6-naphthyridine]
789	2460	> 10000		FC(F)(F)c1[nH]ncc1-c1cc2ncccc2c(OC[C@@H]2CNCCO2)n1 [Compound 2.17, 5-{[(2S)-morpholin-2-yl]methoxy}-7-[5-(trifluoromethyl)-1H-pyrazol-4-yl]-1,6-naphthyridine]
47.2	78.2	1860		Cc1cc(-c2cc3ncccc3c(OC[C@@H]3CNCCO3)n2)cs1 [Compound 2.18, 7-(5-methylthiophen-3-yl)-5-{[(2S)-morpholin-2-yl]methoxy}-1,6-naphthyridine]
68.5	198	2780		Cc1ccc(-c2cc3ncccc3c(OC[C@@H]3CNCCO3)n2)s1 [Compound 2.19, 7-(5-methylthiophen-2-yl)-5-{[(2S)-morpholin-2-yl]methoxy}-1,6-naphthyridine]
82.8	61	2700		c1cnc2cc(-c3cnn(C4CC4)c3)nc(OC[C@@H]3CNCCO3)c2c1 [Compound 2.21, 7-(1-cyclopropyl-1H-pyrazol-4-yl)-5-{[(2S)-morpholin-2-yl]methoxy}-1,6-naphthyridine]
10.1		2110	2480	FC(F)Cn1ccc(-c2cc(OC[C@@H]3CNCCO3)c3cccnc3c2)c1 [Compound 7.2, 7-[1-(2,2-difluoroethyl)-1H-pyrrol-3-yl]-5-{[(2S)-morpholin-2-yl]methoxy}quinoline]
